Biological target: T1, PGD2 receptor 2 (DP2) (Homo sapiens, UniProt Q9Y5Y4)
T1 construct: gene PTGDR2
T1 sequence (Q9Y5Y4 1-395): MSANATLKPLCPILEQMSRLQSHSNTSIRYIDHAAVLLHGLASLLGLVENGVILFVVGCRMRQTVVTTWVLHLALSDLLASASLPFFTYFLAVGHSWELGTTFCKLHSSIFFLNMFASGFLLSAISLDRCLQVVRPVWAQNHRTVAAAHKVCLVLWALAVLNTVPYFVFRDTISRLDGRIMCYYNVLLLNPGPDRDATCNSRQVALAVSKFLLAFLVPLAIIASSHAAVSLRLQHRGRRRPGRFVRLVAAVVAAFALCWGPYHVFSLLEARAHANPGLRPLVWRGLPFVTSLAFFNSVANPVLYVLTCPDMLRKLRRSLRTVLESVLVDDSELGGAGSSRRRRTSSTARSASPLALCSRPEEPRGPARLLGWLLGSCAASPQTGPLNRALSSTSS

Cc1c(CC(=O)O)c2cccnc2n1Cc1ccc(S(C)(=O)=O)cc1C(F)(F)F [fevipiprant]
IC50: 3.5 ± 3.6 nM

— paper PMC7610864, “The Roles of Type 2 Cytotoxic T Cells in Inflammation, Tissue Remodeling, and Prostaglandin (PG) D2 Production Are Attenuated by PGD2 Receptor 2 Antagonism” (The Journal of Immunology Author Choice, 2021)
